# Measurements from PMC10160475, “Biological evaluation and in silico studies of novel compounds as potent TAAR1 agonists that could be used in schizophrenia treatment” (Frontiers in Pharmacology, 2023).
# Read-outs that look alike come from different tables or passages of the source.
# Experiments:
# [1] = Liver microsomal stability, mouse
# Method: (§1) Compounds were incubated with samples of liver microsomes from mice, rats, and humans and NADPH for 5, 10, 20, 30, or 60 min at 37°C. A cold acetonitrile solution containing tolbutamide was used to terminate the reaction. Testosterone and dextromethorphan were used as positive controls. LC-MS/MS was employed to determine the retention of compounds. The retention time, chromatogram acquisition, and chromatogram integration of compounds and positive control substances were analyzed using Analyst (AB Sciex, Framingham, MA, United States).
# hERG = biological target: T1, hERG (Homo sapiens, UniProt Q12809); experiment: hERG assay (electrophysiological recording, CHO cells stably expressing hERG); assay type: cell-based; conditions: up to a maximum concentration of 30 μM
# T1 construct: expressed in transfected cells; host or cells: CHO cells stably expressing hERG
# T1 sequence (Q12809 whole entry): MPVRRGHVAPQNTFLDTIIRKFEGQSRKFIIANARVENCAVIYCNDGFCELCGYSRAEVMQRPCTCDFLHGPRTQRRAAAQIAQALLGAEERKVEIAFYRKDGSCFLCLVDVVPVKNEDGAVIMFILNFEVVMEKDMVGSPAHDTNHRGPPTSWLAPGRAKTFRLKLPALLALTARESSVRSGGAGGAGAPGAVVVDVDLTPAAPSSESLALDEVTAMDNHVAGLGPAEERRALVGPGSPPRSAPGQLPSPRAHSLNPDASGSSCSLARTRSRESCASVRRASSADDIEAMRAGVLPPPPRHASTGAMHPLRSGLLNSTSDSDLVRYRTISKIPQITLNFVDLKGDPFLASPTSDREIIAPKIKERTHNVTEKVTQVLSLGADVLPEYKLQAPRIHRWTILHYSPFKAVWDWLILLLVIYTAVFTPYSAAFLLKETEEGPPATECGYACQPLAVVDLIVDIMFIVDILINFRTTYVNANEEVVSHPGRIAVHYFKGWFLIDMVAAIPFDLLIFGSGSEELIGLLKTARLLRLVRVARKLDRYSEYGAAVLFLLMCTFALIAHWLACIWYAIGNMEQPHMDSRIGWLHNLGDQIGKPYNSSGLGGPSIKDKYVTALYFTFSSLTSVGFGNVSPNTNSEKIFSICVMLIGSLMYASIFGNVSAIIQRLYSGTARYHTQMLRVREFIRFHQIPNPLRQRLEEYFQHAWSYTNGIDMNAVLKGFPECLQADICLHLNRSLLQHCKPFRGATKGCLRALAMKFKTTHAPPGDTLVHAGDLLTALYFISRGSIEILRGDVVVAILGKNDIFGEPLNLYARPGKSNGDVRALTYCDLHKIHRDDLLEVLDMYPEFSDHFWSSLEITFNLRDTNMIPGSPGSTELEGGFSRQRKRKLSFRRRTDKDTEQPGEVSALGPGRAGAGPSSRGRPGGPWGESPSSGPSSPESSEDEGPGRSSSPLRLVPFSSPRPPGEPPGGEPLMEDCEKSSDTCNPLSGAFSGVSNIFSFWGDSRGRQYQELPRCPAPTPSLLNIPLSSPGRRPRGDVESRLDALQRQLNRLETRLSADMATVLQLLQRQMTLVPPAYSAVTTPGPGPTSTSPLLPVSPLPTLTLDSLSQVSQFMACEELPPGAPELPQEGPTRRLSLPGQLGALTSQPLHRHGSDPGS
# Method: CHO cells stably expressing hERG cultured with DMEM/F12 supplemented with 10% FBS, penicillin (100 U/ml), and streptomycin (100 μg/ml) were cultured in cell culture dishes (diameter = 35 mm) in an incubator at 37°C in an atmosphere of 5% CO2. They were passaged at a ratio of 1:5 every 48 h. The medium comprised 90% F12, 10% FBS, G418 (100 μg/ml), and hygromycin B (100 μg/ml). On the day of the assay, the cell culture medium was aspirated and washed with an extracellular solution. Then, 0.25% Trypsin–EDTA solution was added, and digestion was allowed for 3–5 min at room temperature. Digestive juice was aspirated, and cells were transferred to the experimental dish for electrophysiological recording after resuspension with the extracellular solution for future use.
# human 5-HT2A = biological target: T2, human 5-HT2A (Homo sapiens, UniProt P28223); experiment: Calcium (FLIPR) assay, agonist activity at human 5-HT2A; assay type: cell-based
# T2 construct: expressed in transfected cells; host or cells: Flp-In-CHO cell line
# T2 sequence (P28223 whole entry): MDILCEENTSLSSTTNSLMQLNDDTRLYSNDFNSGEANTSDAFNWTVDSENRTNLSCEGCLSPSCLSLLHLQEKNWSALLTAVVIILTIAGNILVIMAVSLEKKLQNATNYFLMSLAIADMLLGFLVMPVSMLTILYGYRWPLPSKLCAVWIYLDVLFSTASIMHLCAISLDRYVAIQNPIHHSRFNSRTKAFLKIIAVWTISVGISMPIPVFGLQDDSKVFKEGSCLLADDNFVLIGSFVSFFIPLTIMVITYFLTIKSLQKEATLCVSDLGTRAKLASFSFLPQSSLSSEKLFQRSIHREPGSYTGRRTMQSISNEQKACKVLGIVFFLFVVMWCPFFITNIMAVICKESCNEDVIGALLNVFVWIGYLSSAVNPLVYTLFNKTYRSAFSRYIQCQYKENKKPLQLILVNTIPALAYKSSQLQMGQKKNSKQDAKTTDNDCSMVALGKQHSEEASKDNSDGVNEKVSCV
# Method: With regard to 5-HT2A, the agonistic or inhibitory activity of 5-HT2A of compounds was determined using the Flp-In™-CHO cell line expressing human 5-HT2A. Cells were cultured with Ham’s F-12K (Kaighn’s) medium supplemented with 10% FBS, penicillin (100 U/ml), streptomycin (100 μg/ml), and hygromycin B (600 μg/ml) at 37°C in an atmosphere of 95% air and 5% CO2. Cells were stimulated with different concentrations of compounds for 2 h at 37°C after seeding in 384-well microplates. For the determination of agonistic activity, serotonin was used as the MAX control. In the determination of inhibitory activity, ketanserin was used as the MAX control.
# catalepsy = experiment: Catalepsy assay (bar test); assay type: in vivo, C57BI/6J mice; conditions: 100 mg/kg p.o., 30 and 90 min after administration
# Method: Twenty-four male C57BI/6J mice were divided randomly into four groups. Mice were placed in a room 1 h before testing. […] The front paws of mice were placed on a horizontal metal bar raised 2 inches above a Plexiglas™ platform 30 min and 90 min after administration. The time the front paws of mice were placed on the platform was recorded at ≤30 s per trial. Each test was repeated three times.
# [2] = biological target: T3, human dopamine D2L receptors (Homo sapiens, UniProt P14416); experiment: cAMP assay, inhibition at human dopamine D2L receptors; assay type: cell-based
# T3 construct: expressed in transfected cells; host or cells: Flp-In-CHO cells
# T3 sequence (P14416 whole entry): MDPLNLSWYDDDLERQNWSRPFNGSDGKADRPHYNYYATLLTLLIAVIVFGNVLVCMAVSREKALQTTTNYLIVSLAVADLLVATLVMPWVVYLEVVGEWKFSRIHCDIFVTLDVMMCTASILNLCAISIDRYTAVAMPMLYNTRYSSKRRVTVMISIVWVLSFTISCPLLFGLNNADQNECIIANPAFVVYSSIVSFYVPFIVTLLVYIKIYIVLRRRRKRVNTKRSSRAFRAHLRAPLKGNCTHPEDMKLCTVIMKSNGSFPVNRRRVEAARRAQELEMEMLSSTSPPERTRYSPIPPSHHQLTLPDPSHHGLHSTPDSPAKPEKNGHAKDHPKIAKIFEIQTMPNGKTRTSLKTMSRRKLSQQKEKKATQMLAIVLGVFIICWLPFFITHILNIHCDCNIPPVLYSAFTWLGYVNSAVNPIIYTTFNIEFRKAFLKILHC
# Method: With regard to D2L and D2S, recombinant Flp-In™-CHO cells expressing human dopamine D2L receptors or D2S receptors were cultured with Ham’s F-12K (Kaighn’s) medium supplemented with 10% FBS, penicillin (100 U/ml), streptomycin (100 μg/ml), and hygromycin B (600 μg/ml) at 37°C in an atmosphere of 5% CO2. The methods of cell inoculation and compound treatment were the same as those for TAAR1, and haloperidol was used as the MAX control. Percentage inhibition was calculated using the following equation: Inhibition %=mean RLUtest sample−mean RLUvehicle control/mean RLUMAX control−mean RLUvehicle control×100%.
# [3] = tested on: MK801-induced schizophrenia-like behavior; experiment: MK801-induced schizophrenia-like behavior (open field, distance traveled); assay type: in vivo, C57BI/6J mice
# Method: Ninety-nine male C57BI/6J mice were divided randomly into 11 groups. Mice were placed in a room 1 h before testing. They were administered (p.o.) vehicle (0.1 ml/10 g), 50A (0.3, 1, 3, and 10 mg/kg; 0.1 ml/10 g), or 50B (0.3, 1, 3, and 10 mg/kg; 0.1 ml/10 g). […] Then, mice were administered (i.p.) MK801 (0.8 mg/kg dissolved in physiologic saline; 0.1 ml/10 g). After 30 min, the distance that mice traveled was measured.
# Forty-six male C57BI/6J mice were divided randomly into four groups. The CN group contained four mice. […] The administration method described previously was employed.
# [4] = Liver microsomal stability, monkey
# [5] = Pharmacokinetics study in rats; assay type: in vivo, Sprague–Dawley rats
# Method: Compound 50B was dissolved in physiologic (0.9%) saline. Male and female rats were fasted overnight before dosing to avoid the possible effects of food. Compound 50B was administered via intragastric (5 mg/kg) and intravenous (2 mg/kg) routes to female and male rats. Approximately 200 μL of whole blood was collected into heparin-coated tubes at 0.083, 0.25, 0.5, 1, 2, 3, 4, 6, 8, 12, and 24 h after dosing. Plasma was collected immediately by centrifugation (8,000 g, 5 min, room temperature). Blood was placed in a heparinized Eppendorf™ tube. Plasma was centrifuged, and the concentration of compounds in the sample was determined by LC-MS/MS after pre-treatment. Drug-concentration data were processed in a […] using WinNonlin™ 6.3 (Pharsight, Mountain View, CA, United States).
# [6] = Liver microsomal stability, human
# Method: as §1
# [7] = Sprague-Dawley, rat, plasma, iv, male rats, 2 mg/kg
# [8] = Sprague-Dawley, rat, plasma, po, male rats, 5 mg/kg, i.g.
# [9] = male, Sprague-Dawley, rat, plasma, po, 5 mg/kg, i.g.
smiles,measurement,setting,value
c1csc([C@@H]2CNCCO2)c1 [Compound 50B],Remaining (T = 60 min),"[1]; Mouse liver microsomes, 60 min",53.5%
same,CLint scaled,"[1]; mouse, liver microsomes",80.8 mL/min/kg
same,half-life,"[1]; mouse, liver microsomes",1.13 h
same,hERG cardiotoxicity,hERG,not cardiotoxic
same,EC50,human 5-HT2A,61.2 µM
same,Emax,"human 5-HT2A; serotonin as MAX control, up to 100 μM, read-out: 5-HT2A agonism Emax",54.9%
same,Time mice spent holding bars (catalepsy),catalepsy,did not increase this time
same,IC50,[2],> 100 µM
same,Emax,"[2]; haloperidol as MAX control, up to 100 μM, read-out: dopamine D2L antagonist Emax",5.49%
same,MK801-induced increase in distance traveled,"[3]; mice, 10 mg/kg p.o., MK801 0.8 mg/kg i.p.",significantly reduced
same,Inhibition of MK801-induced schizophrenia-like behavior (effective doses),"[3]; mice, single oral dose 0.3, 1, 3 and 10 mg/kg, MK801 0.8 mg/kg i.p.","markedly at 1, 3, and 10 mg/kg"
same,Distance moved by mice in the presence or absence of MK801,"[3]; single oral dose 0.3, 1, 3 and 10 mg/kg",significantly reduced the distance moved by mice
same,Remaining (T = 60 min),"[4]; Monkey liver microsomes, 60 min",85.1%
same,CLint scaled,"[4]; monkey, liver microsomes",< 13.5 mL/min/kg
same,half-life,"[4]; monkey, microsomes",> 3.1 h
same,Cmax,[5]; [7],6.8 µM
same,MRT last,[5]; [7],1.46 ± 0.231 h
same,Cmax,[5]; [8],4.38 µM
same,MRT last,[5]; [8],3.03 ± 0.625 h
same,CL/F,"[5]; Sprague-Dawley, rat, plasma, po, male rats, 5 mg/kg, i.g., read-out: CL/F (converted)",26 mL/min/kg
same,Vd/F,"[5]; Sprague-Dawley, rat, plasma, po, male rats, 5 mg/kg, i.g., read-out: Vz/F",2.86 ± 0.104 L/kg
same,CL/F,"[5]; male rats, 2 mg/kg, i.v.",22.2 ± 3.52 mL/min/kg
same,Vz/F,"[5]; male rats, 2 mg/kg, i.v.",2.48 ± 0.485 L/kg
same,AUC(0-t),"[5]; male rats, 5 mg/kg, i.g.","18,929 ± 1774 h* nM"
same,T1/2,"[5]; male rats, 5 mg/kg, i.g.",1.28 ± 0.140 h
same,half-life,"[5]; male, Sprague-Dawley, rat, plasma, iv, 2 mg/kg",1.31 ± 0.313 h
same,AUC(0-t),"[5]; male, Sprague-Dawley, rat, plasma, iv, 2 mg/kg, i.v., read-out: AUC0-t",8.98 µM·h
same,bioavailability,"[5]; male, Sprague-Dawley, rat, plasma, oral, 5 mg/kg, i.g. vs 2 mg/kg i.v., read-out: F (oral bioavailability)",~84.3%
same,Tmax,[5]; [9],~0.833 h
same,half-life,[5]; [9],~1.28 h
same,AUC(0-t),"[5]; male, Sprague-Dawley, rat, plasma, po, 5 mg/kg, i.g., read-out: AUC0-t",~18.9 µM·h
same,Remaining (T = 60 min),"[6]; Human liver microsomes, 60 min",77.2%
same,CLint scaled,"[6]; human, liver microsomes",7.74 mL/min/kg
same,half-life,"[6]; human, liver microsomes",2.68 h
